According to patent US20230399341A1, “7-PHENYL SUBSTITUTED 2-AMINOQUINAZOLINE INHIBITORS OF HPK1” (MERCK SHARP & DOHME LLC, priority 2020, published 2023):

target: T1, Human HPK1, catalytic domain (Homo sapiens, UniProt Q92918); assay: HPK1-SLP76 TR-FRET Assay; assay type: biochemical; conditions: 75 pM HPK1, ATP 10 uM, SLP76 10 nM, 30 min pre-incubation, 60 min reaction
T1 sequence (Q92918 1-346): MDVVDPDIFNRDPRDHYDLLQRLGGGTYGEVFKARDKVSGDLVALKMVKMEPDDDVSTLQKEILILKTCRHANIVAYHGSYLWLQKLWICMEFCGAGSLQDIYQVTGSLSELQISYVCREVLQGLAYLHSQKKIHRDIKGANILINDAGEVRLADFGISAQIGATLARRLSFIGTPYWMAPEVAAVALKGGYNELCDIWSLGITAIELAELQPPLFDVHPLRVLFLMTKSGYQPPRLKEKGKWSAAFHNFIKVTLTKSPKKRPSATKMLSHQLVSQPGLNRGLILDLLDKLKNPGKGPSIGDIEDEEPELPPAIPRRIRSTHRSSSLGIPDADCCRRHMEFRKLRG

Row | Structure (SMILES) | IC50 [nM]
1 | COc1cc2c(cc1Nc1ncc3ccc(-c4cc(C#N)ccc4F)cc3n1)CNCC2 [Compound 1-90, 4-fluoro-3-{2-[(6-methoxy-1,2,3,4-tetrahydroisoquinolin-7-yl)amino]quinazolin-7-yl}benzonitrile] | 393
2 | COc1cc2c(cc1Nc1ncc3ccc(-c4cccc(N5CCOCC5)c4)cc3n1)CNCC2 [Compound 1-91, N-(6-methoxy-1,2,3,4-tetrahydroisoquinolin-7-yl)-7-[3-(morpholin-4-yl)phenyl]quinazolin-2-amine] | 210
3 | COc1cc2c(cc1Nc1ncc3ccc(-c4ccccc4C4CC4)cc3n1)CNCC2 [Compound 1-92, 7-(2-cyclopropylphenyl)-N-(6-methoxy-1,2,3,4-tetrahydroisoquinolin-7-yl)quinazolin-2-amine] | 92.4
4 | COc1cc2c(cc1Nc1ncc3ccc(-c4cc(N)ccc4C)cc3n1)CNCC2 [Compound 1-93, 7-(5-amino-2-methylphenyl)-N-(6-methoxy-1,2,3,4-tetrahydroisoquinolin-7-yl)quinazolin-2-amine] | 481
5 | COc1cc2c(cc1Nc1ncc3ccc(-c4c(C)cccc4F)cc3n1)CNCC2 [Compound 1-94, 7-(2-fluoro-6-methylphenyl)-N-(6-methoxy-1,2,3,4-tetrahydroisoquinolin-7-yl)quinazolin-2-amine] | 81.3
6 | COc1cc2c(cc1Nc1ncc3cc(F)c(-c4cnc5c(c4C)NCCO5)cc3n1)CN(C)CC2 [Compound 1-95, 6-fluoro-N-(6-methoxy-2-methyl-1,2,3,4-tetrahydroisoquinolin-7-yl)-7-(8-methyl-2,3-dihydro-1H-pyrido[2,3-b][1,4]oxazin-7-yl)quinazolin-2-amine] | 2.32
7 | COc1cc2c(cc1Nc1ncc3cc(Cl)c(-c4cnc5c(c4C)NCCO5)cc3n1)CN(C)CC2 [Compound 1-96, 6-chloro-N-(6-methoxy-2-methyl-1,2,3,4-tetrahydroisoquinolin-7-yl)-7-(8-methyl-2,3-dihydro-1H-pyrido[2,3-b][1,4]oxazin-7-yl)quinazolin-2-amine] | 1.85
8 | COc1cc2c(cc1Nc1ncc3cc(C#N)c(-c4cnc5c(c4C)NCCO5)cc3n1)CN(C)CC2 [Compound 1-97, 2-[(6-methoxy-2-methyl-1-1,2,3,4-tetrahydroisoquinolin-7-yl)amino]-7-(8-methyl-2,3-dihydro-1H-pyrido[2,3-b][1,4]oxazin-7-yl)quinazoline-6-carbonitrile] | 53.8
9 | COc1cc2c(cc1Nc1ncc3ccc(-c4cccc(CNC(C)=O)c4)cc3n1)CN(C)CC2 [Compound 1-98, N-[(3-{2-[(6-methoxy-2-methyl-1,2,3,4-tetrahydroisoquinolin-7-yl)amino]quinazolin-7-yl}phenyl)methyl]acetamide] | 203
10 | COc1cc2c(cc1Nc1ncc3ccc(-c4cccc(C(C)(C)NC(C)=O)c4)cc3n1)CN(C)CC2 [Compound 1-100, N-[2-(3-{2-[(6-methoxy-2-methyl-1,2,3,4-tetrahydroisoquinolin-7-yl)amino]quinazolin-7-yl}phenyl)propan-2-yl]acetamide] | 281
11 | COc1cc2c(cc1Nc1ncc3ccc(-c4cccc(C(N)=O)c4)cc3n1)CN(C)CC2 [Compound 1-101, 3-{2-[(6-methoxy-2-methyl-1,2,3,4-tetrahydroisoquinolin-7-yl)amino]quinazolin-7-yl}benzamide] | 130
12 | COc1cc2c(cc1Nc1ncc3ccc(-c4ccc(C#N)nc4)cc3n1)CN(C)CC2 [Compound 1-103, 5-{2-[(6-methoxy-2-methyl-1,2,3,4-tetrahydroisoquinolin-7-yl)amino]quinazolin-7-yl}pyridine-2-carbonitrile] | 328
13 | COc1cc2c(cc1Nc1ncc3ccc(-c4cnc(C#N)c(C)c4)cc3n1)CN(C)CC2 [Compound 1-104, 5-{2-[(6-methoxy-2-methyl-1,2,3,4-tetrahydroisoquinolin-7-yl)amino]quinazolin-7-yl}-3-methylpyridine-2-carbonitrile] | 212
14 | COc1cc2c(cc1Nc1ncc3ccc(-c4c[nH]nc4C)cc3n1)CN(C)CC2 [Compound 1-105, N-(6-methoxy-2-methyl-1,2,3,4-tetrahydroisoquinolin-7-yl)-7-(3-methyl-1H-pyrazol-4-yl)quinazolin-2-amine] | 196
15 | COc1cc2c(cc1Nc1ncc3ccc(-c4cnc5[nH]c(=O)[nH]c5c4)cc3n1)CN(C)CC2 [Compound 1-106, 6-{2-[(6-methoxy-2-methyl-1,2,3,4-tetrahydroisoquinolin-7-yl)amino]quinazolin-7-yl}-1,3-dihydro-2H-imidazo[4,5-b]pyridin-2-one] | 44.1
16 | COc1cc2c(cc1Nc1ncc3ccc(-c4ccc(-n5cccn5)nc4)cc3n1)CN(C)CC2 [Compound 1-107, N-(6-methoxy-2-methyl-1,2,3,4-tetrahydroisoquinolin-7-yl)-7-[6-(1H-pyrazol-1-yl)pyridin-3-yl]quinazolin-2-amine] | 488
17 | COc1cc2c(cc1Nc1ncc3ccc(-c4ccc(CC#N)nc4)cc3n1)CN(C)CC2 [Compound 1-108, (5-{2-[(6-methoxy-2-methyl-1,2,3,4-tetrahydroisoquinolin-7-yl)amino]quinazolin-7-yl}pyridin-2-yl)acetonitrile] | 56
18 | COc1cc2c(cc1Nc1ncc3ccc(-c4ccccc4-c4ccnn4C)cc3n1)CN(C)CC2 [Compound 1-109, N-(6-methoxy-2-methyl-1,2,3,4-tetrahydroisoquinolin-7-yl)-7-[2-(1-methyl-1H-pyrazol-5-yl)phenyl]quinazolin-2-amine] | 0.812
19 | COc1cc2c(cc1Nc1ncc3ccc(-c4ccccc4-c4nnc(C)o4)cc3n1)CN(C)CC2 [Compound 1-110, N-(6-methoxy-2-methyl-1,2,3,4-tetrahydroisoquinolin-7-yl)-7-[2-(5-methyl-1,3,4-oxadiazol-2-yl)phenyl]quinazolin-2-amine] | 302
20 | Cc1c(-c2cc3nc(Nc4ccc5c(c4)CN(CC(C)(C)O)C5=O)ncc3cc2F)cnc2c1NCCO2 [Compound 1-111, 5-{[6-fluoro-7-(8-methyl-2,3-dihydro-1H-pyrido[2,3-b][1,4]oxazin-7-yl)quinazolin-2-yl]amino}-2-(2-hydroxy-2-methylpropyl)-2,3-dihydro-1H-isoindol-1-one] | 0.766
21 | Cc1c(-c2cc3nc(Nc4ccc5c(c4)C(C)(C)OC5=O)ncc3cc2F)cnc2c1NCCO2 [Compound 1-112, 5-{[6-fluoro-7-(8-methyl-2,3-dihydro-1H-pyrido[2,3-b][1,4]oxazin-7-yl)quinazolin-2-yl]amino}-3,3-dimethyl-2-benzofuran-1(3H)-one] | 5.2
22 | Cc1c(-c2cc3nc(Nc4ccc5c(c4)CN(C)CC5)ncc3cc2F)cnc2c1NCCO2 [Compound 1-114, 6-fluoro-7-(8-methyl-2,3-dihydro-1H-pyrido[2,3-b][1,4]oxazin-7-yl)-N-(2-methyl-1,2,3,4-tetrahydroisoquinolin-7-yl)quinazolin-2-amine] | 0.0883
23 | Cc1c(-c2cc3nc(Nc4ccc(CS(C)(=O)=O)cc4)ncc3cc2F)cnc2c1NCCO2 [Compound 1-115, 6-fluoro-7-(8-methyl-2,3-dihydro-1H-pyrido[2,3-b][1,4]oxazin-7-yl)-N-(4-[(methylsulfonyl)methyl]phe-nyl}quinazolin-2-amine] | 0.0508
24 | CNC(=O)C1(c2ccc(Nc3ncc4cc(F)c(-c5cnc6c(c5C)NCCO6)cc4n3)cc2)CCCC1 [Compound 1-120, 1-(4-{[6-fluoro-7-(8-methyl-2,3-dihydro-1H-pyrido[2,3-b][1,4]oxazin-7-yl)quinazolin-2-yl]amino}phenyl)-N-methylcyclopentane-1-carboxamide] | 0.595
25 | CNC(=O)C1(c2ccc(Nc3ncc4cc(F)c(-c5cnc6c(c5C)NCCO6)cc4n3)cc2)CCC1 [Compound 1-121, 1-(4-{[6-fluoro-7-(8-methyl-2,3-dihydro-1H-pyrido[2,3-b][1,4]oxazin-7-yl)quinazolin-2-yl]amino}phenyl)-N-methylcyclobutane-1-carboxamide] | 0.256
26 | CNC(=O)C(F)(F)c1ccc(Nc2ncc3cc(F)c(-c4cnc5c(c4C)NCCO5)cc3n2)cc1 [Compound 1-122, 2,2-difluoro-2-(4-{[6-fluoro-7-(8-methyl-2,3-dihydro-1H-pyrido[2,3-b][1,4]oxazin-7-yl)quinazolin-2-yl]amino}phenyl)-N-methylacetamide] | 0.532
27 | Cc1c(-c2cc3nc(Nc4ccc(CS(=O)(=O)C(C)C)cc4)ncc3cc2F)cnc2c1NCCO2 [Compound 1-128, 6-fluoro-N-(4-((isopropylsulfonyl)methyl)phenyl)-7-(8-methyl-2,3-dihydro-1H-pyrido[2,3-b][1,4]oxazin-7-yl)quinazolin-2-amine] | 0.0828
28 | Cc1c(-c2ccc3cnc(Nc4ccc(CS(=O)(=O)C(C)C)cc4)nc3c2)cnc2c1NCCO2 [Compound 1-129, N-(4-((isopropylsulfonyl)methyl)phenyl)-7-(8-methyl-2,3-dihydro-1H-pyrido[2,3-b][1,4]oxazin-7-yl)quinazolin-2-amine] | 0.0917
29 | CNC(=O)Cc1ccc(Nc2ncc3cc(F)c(-c4cnc5c(c4C)NCCO5)cc3n2)cc1 [Compound 1-130, 2-(4-{[6-fluoro-7-(8-methyl-2,3-dihydro-1H-pyrido[2,3-b][1,4]oxazin-7-yl)quinazolin-2-yl]amino}phenyl)-N-methylacetamide] | 0.0726
30 | Cc1c(-c2cc3nc(Nc4ccc(CC(N)=O)cc4)ncc3cc2F)cnc2c1NCCO2 [Compound 1-131, 2-(4-{[6-fluoro-7-(8-methyl-2,3-dihydro-1H-pyrido[2,3-b][1,4]oxazin-7-yl)quinazolin-2-yl]amino}phenyl)acetamide] | 0.165
